Results from patent US20230293539A1, “MLL1-WDR5 PROTEIN-PROTEIN INTERACTION INHIBITOR COMPOUNDS AND USES THEREOF” (HUYABIO International, LLC, priority 2022, published 2023).

How the values were obtained:
[1] = PK profile of HBI-2375 in plasma and brain in C57BL/6J mice; assay type: in vivo; details: for AUClast Ratio, group 3 vs 2 / Cmax Ratio, group 3 vs 2: repeat PO vs PO 80 mg/kg; for mean concentration at 24 hr post-dose as % of Cmax: both sexes; for Cmax at 7 day / Tmax at 7 day / Cmax / MRT last / Tmax: mouse, C57BL/6J mice; for Cmax at 7 day / Tmax at 7 day: 7-day repeat PO 80 mg/kg
Method: EXAMPLE 4: PK profile of compound of Formula (IIIb) (HBI-2375, HYBI-84) in plasma and brain in C57BL/6J mice: This study was conducted in accordance with the Study Protocol and Pharmaron (Ningbo) TSP's Standard Operating Procedures (SOPs) following all regulatory protocols. This study was conducted under non-GLP environment.
Following single oral gavage administration of HBI-2375 at 40 mg/kg, 80 mg/kg, and 7-day repeat oral gavage administration at 80 mg/kg in C57BL/6J mice, concentrations of HBI-2375 in plasma and brain were determined by LC-MS/MS methods. […] The maximal concentrations of HBI-2375 in brain were all observed at 4 hr post-dose. […] The exposure of HBI-2375 in plasma and brain of females were closed to that of males, the ratios were 0.989-1.22 for plasma, and 1.10-1.34 for brain.

[2] = Metabolite ID in plasma; assay type: in vitro ADME; details: HBI-2375 and metabolites in Monkey plasma
[3] = target: PTP1B (Homo sapiens, UniProt P18031); test: Selectivity panel (Table 3); assay type: biochemical
[4] = target: TEAD2 (Homo sapiens, UniProt Q15562); test: Selectivity panel (Table 3); assay type: binding
[5] = mice, repeat PO 80 mg/kg, brain
[6] = mice, repeat PO 80 mg/kg, plasma
[7] = mice, single PO 40 mg/kg, brain
[8] = mice, single PO 40 mg/kg, plasma
[9] = mice, single PO 80 mg/kg, brain
[10] = mice, single PO 80 mg/kg, plasma
[11] = single PO 40 mg/kg, brain, female
[12] = single PO 40 mg/kg, brain, male
[13] = single PO 40 mg/kg, plasma, female
[14] = single PO 40 mg/kg, plasma, male
[15] = single PO 80 mg/kg, brain, female
[16] = single PO 80 mg/kg, brain, male
[17] = single PO 80 mg/kg, plasma, female
[18] = single PO 80 mg/kg, plasma, male

Chain of PTP1B (P18031 whole entry, species assumed): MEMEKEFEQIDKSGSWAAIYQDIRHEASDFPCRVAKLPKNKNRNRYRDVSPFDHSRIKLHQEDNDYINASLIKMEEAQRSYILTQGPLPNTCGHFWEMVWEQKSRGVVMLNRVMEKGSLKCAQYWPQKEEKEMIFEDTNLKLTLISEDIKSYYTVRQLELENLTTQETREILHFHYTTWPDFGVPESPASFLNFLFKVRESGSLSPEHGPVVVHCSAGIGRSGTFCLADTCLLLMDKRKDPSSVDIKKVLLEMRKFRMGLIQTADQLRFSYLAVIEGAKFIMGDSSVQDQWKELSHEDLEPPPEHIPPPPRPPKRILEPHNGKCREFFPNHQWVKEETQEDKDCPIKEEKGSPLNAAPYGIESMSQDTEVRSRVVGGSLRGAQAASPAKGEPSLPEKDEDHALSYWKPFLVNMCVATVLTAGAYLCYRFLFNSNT
Chain of TEAD2 (Q15562 whole entry, species assumed): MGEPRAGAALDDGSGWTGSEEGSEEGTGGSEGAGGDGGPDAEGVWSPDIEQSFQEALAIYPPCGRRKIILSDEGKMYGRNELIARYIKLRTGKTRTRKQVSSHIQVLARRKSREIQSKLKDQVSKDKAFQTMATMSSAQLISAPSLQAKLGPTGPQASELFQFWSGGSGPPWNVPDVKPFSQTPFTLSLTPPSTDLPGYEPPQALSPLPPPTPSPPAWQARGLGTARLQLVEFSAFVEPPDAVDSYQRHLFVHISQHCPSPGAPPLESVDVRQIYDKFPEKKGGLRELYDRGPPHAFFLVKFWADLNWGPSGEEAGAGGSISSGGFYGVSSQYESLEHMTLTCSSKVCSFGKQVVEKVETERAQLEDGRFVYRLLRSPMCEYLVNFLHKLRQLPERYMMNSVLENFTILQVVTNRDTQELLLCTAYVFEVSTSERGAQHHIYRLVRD

Cc1c(F)c(N)cc(C(=O)Nc2cc(-n3cc(C(=O)N4CCN(C)CC4)nn3)c(F)cc2N2C[C@@H](C)N(C)[C@@H](C)C2)c1Cl [HYBI-084, 5-amino-2-chloro-4-fluoro-N-(4-fluoro-5-(4-(4-methylpiperazine-1-carbonyl)-1H-1,2,3-triazol-1-yl)-2-((3S,5R)-3,4,5-trimethylpiperazin-1-yl)phenyl)-3-methylbenzamide]
AUClast Ratio Female/Male [1, 5]: 1.34 | Cmax Ratio Female/Male [1, 5]: 1.24 | C24hr/Cmax Ratio (%) ([1]; mice, repeat PO 80 mg/kg, brain, female): 18.9% | C24hr/Cmax Ratio (%) ([1]; mice, repeat PO 80 mg/kg, brain, male): 14.4% | AUClast Ratio Female/Male [1, 6]: 1.22 | Cmax Ratio Female/Male [1, 6]: 1.27 | C24hr/Cmax Ratio (%) ([1]; mice, repeat PO 80 mg/kg, plasma, female): 3.94% | C24hr/Cmax Ratio (%) ([1]; mice, repeat PO 80 mg/kg, plasma, male): 2.68% | AUClast Ratio, group 3 vs 2 ([1]; mice, brain, female): 1.87 | Cmax Ratio, group 3 vs 2 ([1]; mice, brain, female): 1.60 | AUClast Ratio, group 3 vs 2 ([1]; mice, brain, male): 1.54 | Cmax Ratio, group 3 vs 2 ([1]; mice, brain, male): 1.44 | AUClast Ratio, group 3 vs 2 ([1]; mice, plasma, female): 1.23 | Cmax Ratio, group 3 vs 2 ([1]; mice, plasma, female): 0.726 | AUClast Ratio, group 3 vs 2 ([1]; mice, plasma, male): 1.04 | Cmax Ratio, group 3 vs 2 ([1]; mice, plasma, male): 0.552 | AUClast Ratio Female/Male [1, 7]: 1.16 | Cmax Ratio Female/Male [1, 7]: 1.15 | mean concentration at 24 hr post-dose as % of Cmax [1, 7]: 10.4-11.1% | C24hr/Cmax Ratio (%) ([1]; mice, single PO 40 mg/kg, brain, female): 11.1% | C24hr/Cmax Ratio (%) ([1]; mice, single PO 40 mg/kg, brain, male): 10.4% | AUClast Ratio Female/Male [1, 8]: 0.989 | Cmax Ratio Female/Male [1, 8]: 0.976 | mean concentration at 24 hr post-dose as % of Cmax [1, 8]: 0.748-1.10% | C24hr/Cmax Ratio (%) ([1]; mice, single PO 40 mg/kg, plasma, female): 1.10% | C24hr/Cmax Ratio (%) ([1]; mice, single PO 40 mg/kg, plasma, male): 0.748% | AUClast Ratio Female/Male [1, 9]: 1.10 | Cmax Ratio Female/Male [1, 9]: 1.11 | mean concentration at 24 hr post-dose as % of Cmax [1, 9]: 9.71-11.2% | C24hr/Cmax Ratio (%) ([1]; mice, single PO 80 mg/kg, brain, female): 9.71% | C24hr/Cmax Ratio (%) ([1]; mice, single PO 80 mg/kg, brain, male): 11.2% | AUClast Ratio Female/Male [1, 10]: 1.03 | Cmax Ratio Female/Male [1, 10]: 0.967 | mean concentration at 24 hr post-dose as % of Cmax [1, 10]: 0.671-0.757% | C24hr/Cmax Ratio (%) ([1]; mice, single PO 80 mg/kg, plasma, female): 0.671% | C24hr/Cmax Ratio (%) ([1]; mice, single PO 80 mg/kg, plasma, male): 0.757% | in-life observations ([1]; mice, single PO 40, 80 mg/kg and 7-day repeat PO 80 mg/kg): no abnormalities were observed | dose proportionality of AUClast and Cmax in plasma and brain ([1]; mice, single PO 40 and 80 mg/kg): proportional increase of exposure | Cmax at 7 day ([1]; brain, female): 892 ng/g | Tmax at 7 day ([1]; brain, female): 4 h | Cmax at 7 day ([1]; brain, male): 722 ng/g | Tmax at 7 day ([1]; brain, male): 4 h | Cmax at 7 day ([1]; plasma, female): 2840 ng/mL | Tmax at 7 day ([1]; plasma, female): 1 h | Cmax at 7 day ([1]; plasma, male): 2230 ng/mL | Tmax at 7 day ([1]; plasma, male): 1 h | Cmax [1, 11]: 192 ng/g | MRT last [1, 11]: 8.25 h | Tmax [1, 11]: 4 h | Cmax [1, 12]: 167 ng/g | MRT last [1, 12]: 8.05 h | Tmax [1, 12]: 4 h | Cmax [1, 13]: 1120 ng/mL | MRT last [1, 13]: 5.3 h | Tmax [1, 13]: 0.5 h | Cmax [1, 14]: 1150 ng/mL | MRT last [1, 14]: 5.22 h | Tmax [1, 14]: 0.5 h | Cmax [1, 15]: 556 ng/g | MRT last [1, 15]: 8.01 h | Tmax [1, 15]: 4 h | Cmax [1, 16]: 500 ng/g | MRT last [1, 16]: 8.4 h | Tmax [1, 16]: 4 h | Cmax [1, 17]: 3910 ng/mL | MRT last [1, 17]: 4.86 h | Tmax [1, 17]: 0.5 h | Cmax [1, 18]: 4040 ng/mL | MRT last [1, 18]: 5.46 h | Tmax [1, 18]: 0.5 h | Relative Abundance (UV Peak Area % Total) [2]: 97.58% | IC50 [3]: > 1000 nM | IC50 [4]: > 1000 nM
